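Following 48 hours of exposure in 96-well plates, responses at five concentrations were used to interpolate endpoints linearly. GI50 is the concentration that inhibits growth by half. TGI denotes the concentration required for complete inhibition of growth.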
Assays:
Experiment in all cases: NCI anticancer screen, dose series, 48 h; in the data active = GI50 below about 0.43 µM; inactive = the rest
[1] = tested on: HL-60(TB) leukemia
[2] = tested on: CCRF-CEM leukemia
[3] = tested on: EKVX NSCLC
[4] = tested on: HCT-116 colon
[5] = tested on: HS 578T breast
[6] = tested on: A549 NSCLC
[7] = tested on: SW-620 colon
[8] = tested on: BT-549 breast
[9] = tested on: SNB-19 CNS
[10] = tested on: OVCAR-3 ovarian
[11] = tested on: HT29 colon
[12] = tested on: NCI-H460 lung
[13] = tested on: MDA-MB-435
[14] = tested on: UACC-257 melanoma
[15] = tested on: TK-10 renal
[16] = tested on: A498 renal
[17] = tested on: NCI-H23 lung
[18] = tested on: MOLT-4 leukemia
[19] = tested on: HOP-92 NSCLC
[20] = tested on: RXF 393 renal
[21] = tested on: OVCAR-5 ovarian
[22] = tested on: NCI-H226 lung
[23] = tested on: SK-MEL-28 melanoma
[24] = tested on: M14 melanoma
[25] = tested on: SR leukemia
[26] = tested on: ACHN renal
[27] = tested on: OVCAR-8 ovarian
[28] = tested on: NCI/ADR-RES ovarian
[29] = tested on: RPMI-8226 leukemia
[30] = tested on: PC-3 prostate
[31] = tested on: SN12C renal
[32] = tested on: SF-268 CNS
[33] = tested on: U251 CNS
[34] = tested on: SF-539 CNS
[35] = tested on: DU-145 prostate
[36] = tested on: HOP-62 NSCLC
[37] = tested on: HCT-15 colon
[38] = tested on: KM12 colon
[39] = tested on: MALME-3M melanoma
[40] = tested on: K-562 leukemia
[41] = tested on: T-47D breast
[42] = tested on: SF-295 CNS
[43] = tested on: MCF7 breast
[44] = tested on: 786-0 renal
[45] = tested on: COLO 205 colon
[46] = tested on: UO-31 renal
[47] = tested on: LOX IMVI melanoma
[48] = tested on: NCI-H522 lung
[49] = tested on: SK-MEL-2 melanoma
[50] = tested on: UACC-62 melanoma
[51] = tested on: MDA-MB-231 breast
[52] = tested on: SNB-75 CNS
[53] = tested on: SK-MEL-5 melanoma
[54] = tested on: OVCAR-4 ovarian
[55] = tested on: SK-OV-3 ovarian
[56] = tested on: IGROV1 ovarian
[57] = tested on: HCC-2998 colon
[58] = tested on: CAKI-1 renal

CCCOC(C)OCCC#CCC(C)OC(=O)CC(Cl)(Cl)Cl (stereo unspecified)
inactive: GI50 [1] 46.5 µg/mL | GI50 [2] 22.6 µg/mL | GI50 [3] 98.4 µg/mL | GI50 [4] 50.8 µg/mL | GI50 [5] 56.8 µg/mL

O=S(=O)(N=S(c1ccccc1)c1ccccc1)c1ccccc1
> 100000 nM: TGI [1] | TGI [6] | TGI [7] | TGI [8] | TGI [9] | TGI [10] | TGI [11] | TGI [12] | TGI [13] | TGI [14] | TGI [15] | TGI [16] | TGI [17] | TGI [2] | TGI [18] | TGI [19] | TGI [3] | TGI [20] | TGI [21] | TGI [22] | TGI [23] | TGI [24] | TGI [25] | TGI [26] | TGI [27] | TGI [28] | TGI [29] | TGI [30] | TGI [31] | TGI [32] | TGI [33] | TGI [34] | TGI [35] | TGI [36] | TGI [37] | TGI [38] | TGI [39] | TGI [40] | TGI [41] | TGI [4] | TGI [42] | TGI [43] | TGI [44] | TGI [45] | TGI [46]

COc1cc(-c2ccc3c(c2)NC(=O)/C3=C\c2ccc[nH]2)ccc1O
> 22600 nM: TGI [42]
> 22100 nM: TGI [18]
> 21100 nM: TGI [44]
> 50000 nM: TGI [6] | TGI [47] | TGI [48] | TGI [7] | TGI [8] | TGI [49] | TGI [9] | TGI [10] | TGI [50] | TGI [51] | TGI [11] | TGI [12] | TGI [15] | TGI [17] | TGI [52] | TGI [19] | TGI [3] | TGI [21] | TGI [22] | TGI [23] | TGI [24] | TGI [54] | TGI [55] | TGI [26] | TGI [27] | TGI [28] | TGI [56] | TGI [30] | TGI [31] | TGI [32] | TGI [33] | TGI [36] | TGI [37] | TGI [38] | TGI [39] | TGI [40] | TGI [41] | TGI [4] | TGI [5] | TGI [43] | TGI [45] | TGI [46]
39200 nM: TGI [16]
active: GI50 [1] 15.5 nM | GI50 [6] 37.4 nM | GI50 [47] 35.3 nM | GI50 [48] 7.47 nM | GI50 [7] 18.8 nM | GI50 [8] 96.8 nM | GI50 [49] 34 nM | GI50 [9] 27.7 nM | GI50 [10] 17.6 nM | GI50 [50] 100 nM | GI50 [51] 40.9 nM | GI50 [12] 19.4 nM | GI50 [17] 66.2 nM | GI50 [2] 17.6 nM | GI50 [52] 20.1 nM | GI50 [18] 32 nM | GI50 [3] 144 nM | GI50 [20] 23.4 nM | GI50 [53] 36.8 nM | GI50 [24] 17.6 nM | GI50 [55] 34.1 nM | GI50 [25] 14 nM | GI50 [26] 41.7 nM | GI50 [27] 25.2 nM | GI50 [28] 17.7 nM | GI50 [29] 22.8 nM | GI50 [56] 69.7 nM | GI50 [30] 22.8 nM | GI50 [31] 42.3 nM | GI50 [32] 377 nM | GI50 [57] 98.1 nM | GI50 [33] 22.1 nM | GI50 [34] 15.6 nM | GI50 [35] 19.3 nM | GI50 [36] 56.3 nM | GI50 [37] 22.8 nM | GI50 [38] 21.4 nM | GI50 [40] < 11.8 nM | GI50 [41] 219 nM | GI50 [58] 255 nM | GI50 [4] 22.8 nM | GI50 [5] 26 nM | GI50 [42] 47.9 nM | GI50 [43] 88.8 nM | GI50 [44] 38.5 nM | GI50 [46] 35.4 nM
1660 nM: TGI [20]
1840 nM: TGI [57]
> 16200 nM: TGI [29]
inactive: GI50 [11] 1050 nM | GI50 [15] 1720 nM | GI50 [16] 2090 nM | GI50 [19] > 24700 nM | GI50 [21] 799 nM | GI50 [22] 2060 nM | GI50 [23] 2190 nM | GI50 [54] 2580 nM | GI50 [39] 2650 nM | GI50 [45] 467 nM
1690 nM: TGI [53]
> 30500 nM: TGI [25]
236 nM: TGI [34]
> 12900 nM: TGI [58]
> 16700 nM: TGI [2]
> 30200 nM: TGI [35]

— PubChem BioAssay (NCI)
